Measured values: patent publication US20250282799A1, “SUBSTITUTED PYRIDO[4,3-d]PYRIMIDINES AS KRAS MODULATORS” (Alterome Therapeutics, Inc., priority 2023, published 2025)

System: KRAS G12V dependent lung adenocarcinoma cell line, NCI-H441
Assay: Cellular pERK (Thr202/Tyr204) FRET/HTRF assay
Type: cell-based
Conditions: Homo sapiens, NCI-H441, cellular pERK (Thr202/Tyr204) HTRF, NCI-H441 cells
Description: “Ras” refers to a protein in the Ras superfamily of small GTPases, such as in the Ras subfamily. […] The Ras proteins play a critical role in the regulation of cell behaviors, including proliferation, differentiation, and survival. […] KRAS G12V, G12D, and G12S variants are common in human cancers and Ras inhibitors binding in or near the Switch II pocket may provide mutant binding selectivity. RAS mutations are known to be often associated with pancreatic, colorectal and non-small-cell lung carcinomas (Lone, A. M. et al. J. Am. Chem. Soc. 2011,133, 11665-74, which is entirely incorporated herein by reference; Dillon, M. B.; Bachovchin, D. A.; Brown, S. J.; Finn, M. G.; Rosen, H.; Cravatt, B. F.; Mowen, K. A. ACS Chem. Biol. 2012, 7, 1198-204, which is entirely incorporated herein by reference; Bachovchin, D. A.; Brown, S. J.; Rosen, H.; Cravatt, B. F. Nat. Biotechnol. 2009, 27, 387-94, Ostrem, J. M.; Peters, U.; Sos, M. L.; Wells, J. A.; Shokat, K. M. Nature 2013, 503, 548-551. Ryan M. B. and Corcoran R. B, Nat. Rev Clin Onco. 2018, 11, 709-720.). Ras proteins are key members in the Ras/Raf/Mitogen-activated protein kinase (MAPK) signaling pathway. This pathway regulates a wide variety of cellular processes, including proliferation, differentiation, apoptosis, and stress responses. One way to measure the impact of an inhibitor of Ras proteins is to measure downstream phosphorylation of proteins in the MAPK pathway. The MAPK pathway includes extracellular signal-regulated kinases named ERK1 and ERK2, which are serine-threonine kinases that regulate cellular signaling under both normal and oncogenic conditions. ERK expression and hyperactivation via phosphorylation plays a major role in cancer progression and are downstream of Ras proteins. The assay used for measuring the downstream impact of Ras inhibition is the use of a highly sensitive cell-based readout of ERK phosphorylation (pERK) specifically on Threonine (Thr) 202 and Tyrosine (Tyr) 204 in a KRAS G12V dependent lung adenocarcinoma cell line, NCI-H441 (ATCC Cat #HTB-174). The assay described herein is suitable for assessing inhibition of Ras and can be tailored for any of the predominant oncogenic mutations in any isoform of Ras (e.g., KRAS, HRAS, and NRAS) by changing the cell line.
pERK was measured using an advanced pERK assay designed for the robust and highly sensitive quantification of ERK phosphorylation on Thr202/Tyr204. This assay is intended for the simple, rapid, and direct detection of endogenous levels of ERK1/2 in cells, but only when ERK is phosphorylated at Thr202 and Tyr204 (Perkin Elmer Catalog #64AERPEH). pERK was detected in a FRET based sandwich assay format using 2 different specific antibodies, one labelled with Eu3+-Cryptate (donor) and the second with d2 (acceptor). When the dyes are in close proximity, the excitation of the donor with a light source (laser or flash lamp) triggers a Fluorescence Resonance Energy Transfer (FRET) towards the acceptor, which in turn fluoresces at a specific wavelength (665 nm). The specific signal modulates positively in proportion to p-ERK1/2 (Thr202/Tyr204). The simple mix-and-read protocol eliminates all wash steps for faster analysis and high-quality output. Briefly, cells were diluted to the desired concentration per well based on a growth curve showing ˜75% confluence within a 24-hour time period at no less than 95% viability. Cell suspension (24 μL) were added into each well of 384-well culture plate and maintained in 37° C. 5% CO2 incubator overnight prior to assay. All compounds were transferred to stock plates using TECAN (EVO200) liquid handler using DMSO as the solubilizing and dilution agent. Test compounds were transferred onto adherent cells using an Echo655 liquid handler. DMSO was employed as negative control. Cells were incubated with test compounds for 1 hr in a 37° C., 5% CO2 incubator following compound addition. […]

Compound	IC50 [µM]
C#Cc1c(F)ccc2cc(N)cc(-c3ncc4c(N5CCOC[C@H]6[C@H](F)[C@H]65)nc(OC[C@@]56CC7(CC7)CN5CCC65CC5)nc4c3F)c12 [Example 207, 4-(2-(((S)-dihydro-5′H-dispiro[cyclopropane-1,1′-pyrrolizine-6′,1″- cyclopropan]-7a′(7′H)-yl)methoxy)-8-fluoro-4-((1S,7S,8S)-8-fluoro-5-oxa-2-azabicyclo[5.1.0]octan-2-yl)pyrido[4,3-d]pyrimidin-7-yl)-5-ethynyl-6-fluoronaphthalen-2-amine]	< 0.05
C#Cc1c(F)ccc2cc(N)cc(-c3ncc4c(N5CCOC[C@H]6[C@H](F)[C@H]65)nc(OC[C@@]56CC[C@H](C)N5C[C@H](F)C6)nc4c3F)c12 [Example 259, 5-Ethynyl-6-fluoro-4-(8-fluoro-2-(((2R,5S,7aS)-2-fluoro-5-methyltetrahydro-1H-pyrrolizin-7a(5H)-yl)methoxy)-4-((1S,7S,8S)-8-fluoro-5-oxa-2-azabicyclo[5.1.0]octan-2-yl)pyrido[4,3-d]pyrimidin-7-yl)naphthalen-2-amine]	< 0.05
[2H]C([2H])(Oc1nc(N2CCOC[C@H]3[C@H](F)[C@H]32)c2cnc(-c3cc(N)cc4ccc(F)c(C#C)c34)c(F)c2n1)[C@@]12CCCN1C[C@@H](CC#N)C2 (single isomer, unassigned) [Example 314]	< 0.05
C#Cc1c(Cl)ccc2cc(N)cc(-c3ncc4c(N5CCOC[C@H]6[C@H](Cl)[C@H]65)nc(OC[C@@H]5CCCN5C)nc4c3F)c12 [Example 321, 6-chloro-4-(4-((1S,7S,8S)-8-chloro-5-oxa-2-azabicyclo[5.1.0]octan-2-yl)-8-fluoro-2-(((S)-1-methylpyrrolidin-2-yl)methoxy)pyrido[4,3-d]pyrimidin-7-yl)-5-ethynylnaphthalen-2-amine]	< 0.05
[2H]C([2H])(Oc1nc(N2CCCOC3C2C3(Cl)Cl)c2cnc(-c3cc(N)cc4ccc(F)c(C#C)c34)c(F)c2n1)[C@@]12CCCN1C[C@H](F)C2 (stereo partly drawn) [Example 292, 4-(4-(8,8-dichloro-2-oxa-6-azabicyclo[5.1.0]octan-6-yl)-8-fluoro-2-(((2R,7aS)-2-fluorotetrahydro-1H-pyrrolizin-7a(5H)-yl)methoxy-d2)pyrido[4,3-d]pyrimidin-7-yl)-5-ethynyl-6-fluoronaphthalen-2-amine]	0.05 to 0.5
[2H]C1([2H])CC2(CC2)[C@@]2(C([2H])([2H])Oc3nc(N4CCOC[C@H]5[C@H](F)[C@H]54)c4cnc(-c5cc(N)cc6ccc(F)c(C#C)c56)c(F)c4n3)C[C@@]([2H])(F)CN12 (single isomer, unassigned) [Example 202]	< 0.05
C#Cc1c(F)ccc2cc(N)cc(-c3ncc4c(N5CCOC[C@H]6[C@H](F)[C@H]65)nc(OC[C@@]56CCCN5C[C@@]5(CC5(F)F)C6)nc4c3F)c12 (single isomer, unassigned) [Example 211]	< 0.05
[2H]C([2H])(Oc1nc(N2CCOC[C@H]3[C@H](F)[C@H]32)c2cnc(-c3cc(N)cc4ccc(F)c(C#C)c34)cc2n1)[C@@]12CCCN1C[C@H](F)C2 [Example 261, 5-ethynyl-6-fluoro-4-(4-((1S,7S,8S)-8-fluoro-5-oxa-2-azabicyclo[5.1.0]octan-2-yl)-2-(((2R,7aS)-2-fluorotetrahydro-1H-pyrrolizin-7a(5H)-yl)methoxy-d2)pyrido[4,3-d]pyrimidin-7-yl)naphthalen-2-amine]	< 0.05

The next lines start with the values.

IC50 [µM]	Compound
< 0.05	[2H]C([2H])(F)Oc1c(F)ccc2cccc(-c3ncc4c(N5CCCC[C@H]6[C@H](F)[C@H]65)nc(OC[C@]56C/C(=C\F)CN5CCC65CC5)nc4c3F)c12 [Example 382, (R,E)-7a′-(((8-fluoro-7-(7-fluoro-8-(fluoromethoxy-d2)naphthalen-1-yl)-4-((1S,7R,8S)-8-fluoro-2-azabicyclo[5.1.0]octan-2-yl)pyrido[4,3-d]pyrimidin-2-yl)oxy)methyl)-6′-(fluoromethylene)hexahydrospiro [cyclopropane-1,1′-pyrrolizine]]
0.5 to 10	[2H]C([2H])(Oc1nc(N2CCOC[C@@H]3[C@@H](Cl)[C@@H]32)c2cnc(-c3cc(N)cc4ccc(Cl)c(C#C)c34)c(F)c2n1)[C@@]12CCCN1[C@H](C)[C@H](F)C2 [Example 345, 6-chloro-4-(4-((1R,7R,8R)-8-chloro-5-oxa-2-azabicyclo[5.1.0]octan-2-yl)-8-fluoro-2-(((2R,3R,7aS)-2-fluoro-3-methyltetrahydro-1H-pyrrolizin-7a(5H)-yl)methoxy-d2)pyrido[4,3-d]pyrimidin-7-yl)-5-ethynylnaphthalen-2-amine]
0.05 to 0.5	Cc1c(F)c(N)cc(-c2ncc3c(N4CCCC[C@H]5[C@H](F)[C@H]54)nc(OC[C@@]45CCCN4C/C(=C\F)C5)nc3c2F)c1C(F)(F)F [Example 398, 2-fluoro-5-(8-fluoro-4-((1S,7R,8S)-8-fluoro-2-azabicyclo[5.1.0]octan-2-yl)-2-(((S,Z)-2-(fluoromethylene)tetrahydro-1H-pyrrolizin-7a(5H)-yl)methoxy)pyrido[4,3-d]pyrimidin-7-yl)-3-methyl-4-(trifluoromethyl)aniline]
< 0.05	[2H]C([2H])(F)Oc1c(F)ccc2cccc(-c3ncc4c(N5CCCC[C@H]6[C@H](F)[C@H]65)nc(OC[C@]56CC(=C)CN5CCC65CC5)nc4c3F)c12 [Example 407, (R)-7a′-(((8-fluoro-7-(7-fluoro-8-(fluoromethoxy-d2)naphthalen-1-yl)-4-((1S,7R,8S)-8-fluoro-2-azabicyclo[5.1.0]octan-2-yl)pyrido[4,3-d]pyrimidin-2-yl)oxy)methyl)-6′-methylenehexahydrospiro[cyclopropane-1,1′-pyrrolizine]]
0.05 to 0.5	C=C1CN2CCC3(CC3)[C@@]2(COc2nc(N3CCCC[C@H]4[C@H](F)[C@H]43)c3cnc(-c4cc(N)c(F)c(C)c4C(F)(F)F)c(F)c3n2)C1 [Example 379, 2-fluoro-5-(8-fluoro-4-((1S,7R,8S)-8-fluoro-2-azabicyclo[5.1.0]octan-2-yl)-2-(((R)-6′-methylenetetrahydrospiro[cyclopropane-1,1′-pyrrolizin]-7a′(5′H)-yl)methoxy)pyrido[4,3-d]pyrimidin-7-yl)-3-methyl-4-(trifluoromethyl)aniline]

Same assay, conditions: Homo sapiens, NCI-H441, cellular pERK HTRF, NCI-H441 (KRAS G12V) cells

IC50 [µM]	Compound
< 0.05	C#Cc1c(F)ccc2cc(N)cc(-c3ncc4c(N5CCOCC6C(Cl)C65)nc(OC[C@]56CC(=C)CN5CCC65CC5)nc4c3C)c12 (stereo partly drawn) [Example 444, 4-(4-(8-chloro-5-oxa-2-azabicyclo[5.1.0]octan-2-yl)-8-methyl-2-(((R)-6′-methylenetetrahydrospiro[cyclopropane-1,1′-pyrrolizin]-7a′(5′H)-yl)methoxy)pyrido[4,3-d]pyrimidin-7-yl)-5-ethynyl-6-fluoronaphthalen-2-amine]

Same assay, conditions: Homo sapiens, NCI-H441, pERK HTRF, NCI-H441 cells (KRAS G12V)

IC50 [µM]	Compound
0.5 to 10	[2H]C([2H])(Oc1nc(N2CCOC[C@@H]3C[C@@H]32)c2cnc(-c3cc(N)cc4cc(F)c(F)c(C#C)c34)c(F)c2n1)[C@@]12CCCN1C[C@H](F)C2 [Example 61, 4-(4-((1S,7R)-5-Oxa-2-azabicyclo[5.1.0]octan-2-yl)-8-fluoro-2-(((2R,7aS)-2-fluorotetrahydro-1H-pyrrolizin-7a(5H)-yl)methoxy-d2)pyrido[4,3-d]pyrimidin-7-yl)-5-ethynyl-6,7-difluoronaphthalen-2-amine]
